Test results taken from patent US8192962B2, “Processes for detecting toxic substances” (Daikin Industries, Ltd., priority 2001, dated 2012).

Test system: Mitochondria-located protein genes
Test: DNA chip mRNA expression in yeast, mitochondria-located protein genes (Table 2)
Assay type: cell-based, Saccharomyces cerevisiae S288C
Conditions: cells incubated two hours with the chemical substance
Procedure, shortened: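 Whole-genome yeast DNA chip hybridization (65° C., >12 h) of Cy-labeled cDNA from S288C cells exposed 2 h at 25° C. to a sub-lethal toxicant dose in YPD; value is intensity relative to chemical-free control.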

Q: With `COc1cc(CNC(=O)CCCCC=CC(C)C)ccc1O` [(12), 8-methyl-N-vanillyl-6-nonenamide] as the compound, how does the “The level of expressed mRNA in the presence of chemical substance/The level of expressed mRNA in the absence of chemical substance” value (yeast gene YAL039C) read?
A: 1.4

Q: What about the “The level of expressed mRNA in the presence of chemical substance/The level of expressed mRNA in the absence of chemical substance” value (yeast gene YBL022C) of the same compound?
A: 0.9

Q: What about the “The level of expressed mRNA in the presence of chemical substance/The level of expressed mRNA in the absence of chemical substance” value (yeast gene YBL030C) of the same compound?
A: 0.9

Q: What about the “The level of expressed mRNA in the presence of chemical substance/The level of expressed mRNA in the absence of chemical substance” value (yeast gene YBL038W) of the same compound?
A: 0.7

Q: What about the “The level of expressed mRNA in the presence of chemical substance/The level of expressed mRNA in the absence of chemical substance” value (yeast gene YBL099W) of the same compound?
A: 1.0

Q: And the “The level of expressed mRNA in the presence of chemical substance/The level of expressed mRNA in the absence of chemical substance” value (yeast gene YBR003W)?
A: 0.8

Q: What about the “The level of expressed mRNA in the presence of chemical substance/The level of expressed mRNA in the absence of chemical substance” value (yeast gene YBR044C) of the same compound?
A: 0.8

Q: And the “The level of expressed mRNA in the presence of chemical substance/The level of expressed mRNA in the absence of chemical substance” value (yeast gene YBR091C)?
A: 0.8

Q: And the “The level of expressed mRNA in the presence of chemical substance/The level of expressed mRNA in the absence of chemical substance” value (yeast gene YBR122C)?
A: 0.7

Q: What about the “The level of expressed mRNA in the presence of chemical substance/The level of expressed mRNA in the absence of chemical substance” value (yeast gene YBR185C) of the same compound?
A: 0.7

Q: What about the “The level of expressed mRNA in the presence of chemical substance/The level of expressed mRNA in the absence of chemical substance” value (yeast gene YBR221C) of the same compound?
A: 1.3

Q: And the “The level of expressed mRNA in the presence of chemical substance/The level of expressed mRNA in the absence of chemical substance” value (yeast gene YBR251W)?
A: 1.1

Q: And the “The level of expressed mRNA in the presence of chemical substance/The level of expressed mRNA in the absence of chemical substance” value (yeast gene YBR282W)?
A: 0.8

Q: And the “The level of expressed mRNA in the presence of chemical substance/The level of expressed mRNA in the absence of chemical substance” value (yeast gene YCL057W)?
A: 1.0

Q: And the “The level of expressed mRNA in the presence of chemical substance/The level of expressed mRNA in the absence of chemical substance” value (yeast gene YCR046C)?
A: 1.1

Q: What about the “The level of expressed mRNA in the presence of chemical substance/The level of expressed mRNA in the absence of chemical substance” value (yeast gene YCR083W) of the same compound?
A: 1.1

Q: What about the “The level of expressed mRNA in the presence of chemical substance/The level of expressed mRNA in the absence of chemical substance” value (yeast gene YDL067C) of the same compound?
A: 1.0

Q: What about the “The level of expressed mRNA in the presence of chemical substance/The level of expressed mRNA in the absence of chemical substance” value (yeast gene YDL181W) of the same compound?
A: 0.9

Q: What about the “The level of expressed mRNA in the presence of chemical substance/The level of expressed mRNA in the absence of chemical substance” value (yeast gene YDL198C) of the same compound?
A: 1.2

Q: And the “The level of expressed mRNA in the presence of chemical substance/The level of expressed mRNA in the absence of chemical substance” value (yeast gene YDR079W)?
A: 1.1

Q: What about the “The level of expressed mRNA in the presence of chemical substance/The level of expressed mRNA in the absence of chemical substance” value (yeast gene YDR178W) of the same compound?
A: 1.3

Q: What about the “The level of expressed mRNA in the presence of chemical substance/The level of expressed mRNA in the absence of chemical substance” value (yeast gene YDR231C) of the same compound?
A: 1.1

Q: What about the “The level of expressed mRNA in the presence of chemical substance/The level of expressed mRNA in the absence of chemical substance” value (yeast gene YDR258C) of the same compound?
A: 1.8

Q: What about the “The level of expressed mRNA in the presence of chemical substance/The level of expressed mRNA in the absence of chemical substance” value (yeast gene YDR298C) of the same compound?
A: 1.1

Q: What about the “The level of expressed mRNA in the presence of chemical substance/The level of expressed mRNA in the absence of chemical substance” value (yeast gene YDR347W) of the same compound?
A: 0.8

Q: And the “The level of expressed mRNA in the presence of chemical substance/The level of expressed mRNA in the absence of chemical substance” value (yeast gene YDR377W)?
A: 0.9

Q: What about the “The level of expressed mRNA in the presence of chemical substance/The level of expressed mRNA in the absence of chemical substance” value (yeast gene YDR529C) of the same compound?
A: 0.6

Q: What about the “The level of expressed mRNA in the presence of chemical substance/The level of expressed mRNA in the absence of chemical substance” value (yeast gene YEL024W) of the same compound?
A: 0.8

Q: And the “The level of expressed mRNA in the presence of chemical substance/The level of expressed mRNA in the absence of chemical substance” value (yeast gene YEL039C)?
A: 0.6

Q: What about the “The level of expressed mRNA in the presence of chemical substance/The level of expressed mRNA in the absence of chemical substance” value (yeast gene YER178W) of the same compound?
A: 1.3

Q: What about the “The level of expressed mRNA in the presence of chemical substance/The level of expressed mRNA in the absence of chemical substance” value (yeast gene YFL016C) of the same compound?
A: 1.0

Q: And the “The level of expressed mRNA in the presence of chemical substance/The level of expressed mRNA in the absence of chemical substance” value (yeast gene YGL018C)?
A: 1.0

Q: What about the “The level of expressed mRNA in the presence of chemical substance/The level of expressed mRNA in the absence of chemical substance” value (yeast gene YGL187C) of the same compound?
A: 0.8

Q: What about the “The level of expressed mRNA in the presence of chemical substance/The level of expressed mRNA in the absence of chemical substance” value (yeast gene YGL191W) of the same compound?
A: 0.9

Q: What about the “The level of expressed mRNA in the presence of chemical substance/The level of expressed mRNA in the absence of chemical substance” value (yeast gene YGR008C) of the same compound?
A: 2.0

Q: And the “The level of expressed mRNA in the presence of chemical substance/The level of expressed mRNA in the absence of chemical substance” value (yeast gene YGR028W)?
A: 1.5

Q: What about the “The level of expressed mRNA in the presence of chemical substance/The level of expressed mRNA in the absence of chemical substance” value (yeast gene YGR062C) of the same compound?
A: 1.0

Q: And the “The level of expressed mRNA in the presence of chemical substance/The level of expressed mRNA in the absence of chemical substance” value (yeast gene YGR076C)?
A: 1.0

Q: And the “The level of expressed mRNA in the presence of chemical substance/The level of expressed mRNA in the absence of chemical substance” value (yeast gene YGR082W)?
A: 0.8

Q: And the “The level of expressed mRNA in the presence of chemical substance/The level of expressed mRNA in the absence of chemical substance” value (yeast gene YGR174C)?
A: 0.9

Q: What about the “The level of expressed mRNA in the presence of chemical substance/The level of expressed mRNA in the absence of chemical substance” value (yeast gene YGR244C) of the same compound?
A: 1.9

Q: And the “The level of expressed mRNA in the presence of chemical substance/The level of expressed mRNA in the absence of chemical substance” value (yeast gene YHR008C)?
A: 0.7

Q: What about the “The level of expressed mRNA in the presence of chemical substance/The level of expressed mRNA in the absence of chemical substance” value (yeast gene YIL155C) of the same compound?
A: 1.4

Q: And the “The level of expressed mRNA in the presence of chemical substance/The level of expressed mRNA in the absence of chemical substance” value (yeast gene YJL096W)?
A: 1.0

Q: And the “The level of expressed mRNA in the presence of chemical substance/The level of expressed mRNA in the absence of chemical substance” value (yeast gene YJL102W)?
A: 0.8

Q: What about the “The level of expressed mRNA in the presence of chemical substance/The level of expressed mRNA in the absence of chemical substance” value (yeast gene YJL133W) of the same compound?
A: 0.8

Q: And the “The level of expressed mRNA in the presence of chemical substance/The level of expressed mRNA in the absence of chemical substance” value (yeast gene YJL166W)?
A: 0.7

Q: What about the “The level of expressed mRNA in the presence of chemical substance/The level of expressed mRNA in the absence of chemical substance” value (yeast gene YJL180C) of the same compound?
A: 0.8

Q: And the “The level of expressed mRNA in the presence of chemical substance/The level of expressed mRNA in the absence of chemical substance” value (yeast gene YJR045C)?
A: 1.0

Q: What about the “The level of expressed mRNA in the presence of chemical substance/The level of expressed mRNA in the absence of chemical substance” value (yeast gene YJR077C) of the same compound?
A: 1.0
